Laboratory results taken from ChEMBL document CHEMBL1201862, “PubChem BioAssay data set” (2004).
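Protocol summary: plate cells (96-well), add compound at 5 concentrations, incubate 48 h, interpolate endpoints linearly. Here, GI50 denotes the concentration required for 50% inhibition of growth.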 Calls of active or inactive are those of the source. Cut-off read from the data, not from the text of the source: active = GI50 up to about 1.1 µM and inactive = higher.

Legend:
Experiment in all cases: inhibition of tumour cell growth, NCI panel, 48 h
TK-10 = system: TK-10
SK-MEL-5 = system: SK-MEL-5
OVCAR-4 = system: OVCAR-4
SW-620 = system: SW-620
T47D = system: T47D
ACHN = system: ACHN
HT-29 = system: HT-29
U-251 = system: U-251
MOLT-4 = system: MOLT-4
HOP-92 = system: HOP-92
KM12 = system: KM12
SNB-75 = system: SNB-75
UO-31 = system: UO-31
SF-268 = system: SF-268
NCI/ADR-RES = system: NCI/ADR-RES
RXF 393 = system: RXF 393
HL-60 = system: HL-60
DU-145 = system: DU-145
A498 = system: A498
OVCAR-3 = system: OVCAR-3

| SMILES | GI50 (TK-10) | GI50 (SK-MEL-5) | GI50 (OVCAR-4) | GI50 (SW-620) | GI50 (T47D) | GI50 (ACHN) | GI50 (HT-29) | GI50 (U-251) | GI50 (MOLT-4) | GI50 (HOP-92) | GI50 (KM12) | GI50 (SNB-75) | GI50 (UO-31) | GI50 (SF-268) | GI50 (NCI/ADR-RES) | GI50 (RXF 393) | GI50 (HL-60) | GI50 (DU-145) | GI50 (A498) | GI50 (OVCAR-3) |
| --- | --- | --- | --- | --- | --- | --- | --- | --- | --- | --- | --- | --- | --- | --- | --- | --- | --- | --- | --- | --- |
| CC(=O)Nc1ccc2c(c1)nc1c3ccccc3ccn21 | > 100 µM (inactive) | > 100 µM (inactive) | > 100 µM (inactive) | > 100 µM (inactive) | > 100 µM (inactive) | > 100 µM (inactive) | > 100 µM (inactive) | > 100 µM (inactive) | > 100 µM (inactive) | > 100 µM (inactive) | 81.1 µM (inactive) | 71.9 µM (inactive) | 90.4 µM (inactive) | > 100 µM (inactive) | > 100 µM (inactive) | 99.1 µM (inactive) | > 100 µM (inactive) | > 100 µM (inactive) | > 100 µM (inactive) | – |
| CCN(CC)C(=S)SNc1ccc(S(N)(=O)=O)cc1 | > 100 µM (inactive) | 30.5 µM (inactive) | > 83 µM (inactive) | 13.7 µM (inactive) | 91.6 µM (inactive) | 45.1 µM (inactive) | 24.6 µM (inactive) | 50.4 µM (inactive) | 0.789 µM (active) | > 56.2 µM (inactive) | > 71.6 µM (inactive) | > 72.9 µM (inactive) | 33.2 µM (inactive) | > 75.7 µM (inactive) | > 83.6 µM (inactive) | 44.4 µM (inactive) | 0.064 µM (active) | > 92.9 µM (inactive) | > 100 µM (inactive) | – |
| N#C[BH2-][n+]1cn(C2CC(O)C(COP(=O)(O)OC3CC(n4ccc(N)nc4=O)OC3CO)O2)c2nc(N)[nH]c(=O)c21 (configuration not stated) | – | > 100 µM (inactive) | > 100 µM (inactive) | – | > 100 µM (inactive) | > 100 µM (inactive) | > 100 µM (inactive) | > 100 µM (inactive) | > 100 µM (inactive) | > 100 µM (inactive) | > 100 µM (inactive) | > 100 µM (inactive) | > 100 µM (inactive) | > 100 µM (inactive) | > 100 µM (inactive) | > 100 µM (inactive) | > 100 µM (inactive) | > 100 µM (inactive) | > 100 µM (inactive) | > 100 µM (inactive) |
| Nc1ccn(C2OC(COP(=O)(O)OCC3OC(n4cc(F)c(=O)[nH]c4=O)CC3O)C(O)C2O)c(=O)n1 (configuration not stated) | – | 0.605 µM (active) | > 100 µM (inactive) | > 100 µM (inactive) | 4.47 µM (inactive) | 0.0447 µM (active) | 4.3 µM (inactive) | 1.77 µM (inactive) | 0.0575 µM (active) | 38 µM (inactive) | > 100 µM (inactive) | > 48.3 µM (inactive) | 0.339 µM (active) | < 0.01 µM (active) | 9.23 µM (inactive) | > 56.8 µM (inactive) | 0.237 µM (active) | 0.0828 µM (active) | 0.225 µM (active) | > 100 µM (inactive) |
| Cc1nnc(N)nc1/C=C\c1cccs1 | 32.4 µM (inactive) | > 10 µM (inactive) | 21.6 µM (inactive) | 25.5 µM (inactive) | 46.9 µM (inactive) | 15 µM (inactive) | 14.1 µM (inactive) | 29.9 µM (inactive) | 32.3 µM (inactive) | 18.4 µM (inactive) | 16.8 µM (inactive) | – | 10.1 µM (inactive) | 19.5 µM (inactive) | 16.7 µM (inactive) | 19.5 µM (inactive) | 6.11 µM (inactive) | 79.6 µM (inactive) | 22 µM (inactive) | – |
| O=C1/C(=C/c2ccncc2)C(n2cccc2)c2c(Br)sc(Br)c21 (configuration not stated) | 4.2 µM (inactive) | 13.7 µM (inactive) | – | 1.57 µM (inactive) | 3.73 µM (inactive) | 4.95 µM (inactive) | 4.82 µM (inactive) | 2.11 µM (inactive) | 1.4 µM (inactive) | 2.86 µM (inactive) | 11.3 µM (inactive) | 3.53 µM (inactive) | 2.29 µM (inactive) | 2.99 µM (inactive) | 14.3 µM (inactive) | 1.88 µM (inactive) | 1.53 µM (inactive) | 3.56 µM (inactive) | 22.7 µM (inactive) | 1.87 µM (inactive) |
